Source: patent publication US10822317B2, “Methods and compositions for wound healing” (QBiotics Limited, priority 2013, dated 2020)

Columns and labels:
[1] = test system: human peripheral blood monocytes; test: Differentiation of monocytes into macrophages; assay type: cell-based; settings: 10-fold dilutions; 4 days; adherence and morphology
Experimental: To determine potential effects of Compound 1 and fifteen other epoxy-tigliane compounds in the array on monocyte differentiation, human peripheral blood mononuclear cells (PBMCs) were isolated by Ficoll-Paque sedimentation of heparinised blood from a human donor, and plated at 100,000 cells/well in RPMI-1640 10% FCS. Duplicate wells were treated with 10-fold dilutions of the compounds and incubated at 37° C. for 4 days. The wells were scored visually for cell attachment and morphology, then washed twice with PBS, stained with sulfurhodamine and the incorporate stain quantitated in an ELISA reader. The plates were then washed with water and stained with 1% crystal violet in methanol for photography and scoring of adherent cell morphology.

[2] = test system: human neonatal fibroblasts; test: Scratch closure, human neonatal fibroblasts, Method 3 (IncuCyte); assay type: cell-based; settings: 200 ng/mL
Experimental: The ability of early. passage neonatal foreskin fibroblasts (NFF) cultured in RPMI 1640-10% foetal calf serum to migrate across a scratch wound made in a confluent monolayer following treatment with purified compounds or plant extracts was determined using one or more of the following three methods.
Cells were seeded and treated in 96-well plates as in Method 2 (5 replicate wells per dilution), except that the scratches were made in one action with a tool having 96, 1 mm thick teflon coated pins (Essen Bioscience Woundmaker). The plate was then placed in a 37° C., 5% CO2 humidified atmosphere in an IncuCyte FLR instrument programmed to photograph each well under phase contrast at 3 hr intervals for 42 hours. The software determined the initial scratch boundaries and their rate of closure. Accelerated wound closure was considered to be significant if the initial rate of closure was >10% of the untreated controls.

## CCC(C)C(=O)OC1C(C)C2(O)C(C3OC3(CO)C(O)C3(O)C(=O)C(C)=CC32)C2C(C)(C)C12OC(C)=O (stereo not drawn) [Compound 52, 12-(2-methylbutanoyl)-13-acetyl-6,7-epoxy-4,5,9,12,13,20-hexahydroxy-1-tigliaen-3-one]
[1]
  Differentiation endpoint (endpoint concentration in dilution series for induction of macrophage phenotype): 10 ng/mL

## CCCCCC(O)C(O)/C=C/C=C/C(=O)OC1C(C)C2(O)C(C3OC3(CO)C(O)C3(O)C(=O)C(C)=CC32)C2C(C)(C)C12OC(=O)C(C)CC (stereo not drawn) [Compound 11, 12-[(2E,4E)-6,7-dihydroxydodeca-2,4-dienoyl]-13-(2-methylbutanoyl)-6,7-epoxy-4,5,9,12,13,20-hexahydroxy-1-tigliaen-3-one]
[2]
  % closure compared to control: 270%

## CCCCCC(=O)OC12C(O)C(C)C3(O)C(C4OC4(CO)C(O)C4(O)C(=O)C(C)=CC43)C1C2(C)C (stereo not drawn) [Compound 53, 13-hexanoyl-6,7-epoxy-4,5,9,12,13,20-hexahydroxy-1-tigliaen-3-one]
[1]
  Differentiation endpoint (endpoint concentration in dilution series for induction of macrophage phenotype): 100 ng/mL

## 12-myristoyl-13-(2-methylbutanoyl)-6,7-epoxy-4,5,9,12,13,20-hexahydroxy-1-tigliaen-3-one [Compound 51]
[1]
  Differentiation endpoint (endpoint concentration in dilution series for induction of macrophage phenotype): 1 ng/mL

## 12,13-di-heptanoyl-6,7-epoxy-4,5,9,12,13,20-hexahydroxy-1-tigliaen-3-one [Compound 49]
[1]
  Differentiation endpoint (endpoint concentration in dilution series for induction of macrophage phenotype): 1 ng/mL

## 12-benzoyl-13-(2-methylbutanoyl)-6,7-epoxy-4,5,9,12,13,20-hexahydroxy-1-tigliaen-3-one [Compound 23]
[2]
  % closure compared to control: 130%
[1]
  Differentiation endpoint (endpoint concentration in dilution series for induction of macrophage phenotype): 1 ng/mL

## 12-(3-butenoyl)-13-nonanoyl-6,7-epoxy-4,5,9,12,13,20-hexahydroxy-1-tigliaen-3-one [Compound 22]
[2]
  % closure compared to control: 400%
[1]
  Differentiation endpoint (endpoint concentration in dilution series for induction of macrophage phenotype): 100 ng/mL

## 12-benzoyl-13-butanoyl-6,7-epoxy-4,5,9,12,13,20-hexahydroxy-1-tigliaen-3-one [Compound 28]
[2]
  % closure compared to control: 140%

## 12,13-di-nonoyl-6,7-epoxy-4,5,9,12,13,20-hexahydroxy-1-tigliaen-3-one [Compound 41]
[1]
  Differentiation endpoint (endpoint concentration in dilution series for induction of macrophage phenotype): 0.1 ng/mL

## CCCCCC=CC=CC(=O)OC1C(C)C2(O)C(C3OC3(CO)C(O)C3(O)C(=O)C(C)=CC32)C2C(C)(C)C12OC(=O)C(C)CC (stereo not drawn) [Compound 24, 12-[(2E,4E)-deca-2,4-dienoyl]-13-(2-methylbutanoyl)-6,7-epoxy-4,5,9,12,13,20-hexahydroxy-1-tigliaen-3-one]
[1]
  Differentiation endpoint (endpoint concentration in dilution series for induction of macrophage phenotype): 1 ng/mL

## 12-myristoyl-13-acetyl-6,7-epoxy-4,5,9,12,13,20-hexahydroxy-1-tigliaen-3-one [Compound 50]
[1]
  Differentiation endpoint (endpoint concentration in dilution series for induction of macrophage phenotype): 1 ng/mL

## 12-tigloyl-13-butanoyl-6,7-epoxy-4,5,9,12,13,20-hexahydroxy-1-tigliaen-3-one [Compound 21]
[2]
  % closure compared to control: 200%
[1]
  Differentiation endpoint (endpoint concentration in dilution series for induction of macrophage phenotype): 10 ng/mL

## CCCCCC=CC=CC=CC(=O)OC1C(C)C2(O)C(C3OC3(CO)C(O)C3(O)C(=O)C(C)=CC32)C2C(C)(C)C12OC(=O)C(C)CC (stereo not drawn) [Compound 3, 12-[(2E,4E,6E)-dodeca-2,4,6-trienoyl]-13-(2-methylbutanoyl)-6,7-epoxy-4,5,9,12,13,20-hexahydroxy-1-tigliaen-3-one]
[2]
  % closure compared to control: 270%
[1]
  Differentiation endpoint (endpoint concentration in dilution series for induction of macrophage phenotype): 10 ng/mL

## CCCCCC=CC=CC(=O)OC1C(C)C2(O)C(C3OC3(CO)C(O)C3(O)C(=O)C(C)=CC32)C2C(C)(C)C12OC(=O)C(C)CC (stereo not drawn) [Compound 18, 12-[(2Z,4E)-deca-2,4-dienoyl]-13-(2-methylbutanoyl)-6,7-epoxy-4,5,9,12,13,20-hexahydroxy-1-tigliaen-3-one]
[2]
  % closure compared to control: 220%
